“Also recorded” adds a separate entry of the source. Where two headings read alike, the source gives them in different places.
Key:
[1] = cited from earlier work; for market withdrawal due to cardiovascular adverse effects: ref Onakpoya et al., 2016, Siramshetty et al.; for cardiovascular clinical adverse effects: parent drug and/or metabolites, ref Zhang et al., 2012
zebrafish larvae = experiment: ZeCardio cardiotoxicity screen in zebrafish larvae (heart and blood flow imaging)
Protocol: Zebrafish (Danio rerio) were mated, staged, and raised by standard methods ([Westerfield, 2000]). The library screen was performed on double transgenic larvae for Tg[cmlc2: GFP] ([Huang et al., 2003]) and Tg[gata1: DsRed] ([Traver et al., 2003]). Tg[cmlc2: GFP] expresses green fluorescent protein (GFP) in cardiomyocytes and Tg[gata1: DsRed] expresses DsRed fluorescent protein in a subset of erythrocytes.
Determination of NOEC was achieved through an Acute Toxicity test performed on AB wildtype larvae from 3 to 96 hpf, as previously described ([Cornet et al., 2017]) (see Supplementary Table 1 for NOEC data for each compound). For the cardiotoxic drug screening, double transgenic zebrafish larvae for Tg[cmlc2: GFP] and Tg[gata1: DsRed] were collected and raised in Embryo Medium (E3/60× Stock: 34.4 g NaCl, 1.52 g KCl, 5.8 g CaCl2·2H2O, 9.8 g MgSO4·7H2O, add 18 MOhm double distilled water up to 2000 ml; pH: 7.2) at 28.5°C in a 12 h light/12 h dark cycle. From 24 hpf onward, larvae were incubated with N-PhenylThioUrea (PTU) (Sigma-Aldrich, No. P7629) 0.2 mM to reduce pigmentation. Embryo medium was changed every day until 5 dpf, when double positive transgenic larvae were selected. […] Larvae were immersed in E3 with PTU 0.2 mM and Tricaine methanesulfonate (Sigma-Aldrich, No. E10521) at […] working concentration and distributed in 96-well plates in 100 µl per well. Then, 100 µl of compound solution was added at double NOEC concentration to reach the working concentration per compound: NOEC, DMSO 1%, and the final volume of 200 µl per larva per well. Negative control larvae were incubated in 200 µl 1% DMSO. Embryos were allowed to incubate in the compound solution for 4 h before. The developmental stage selected for analysis (5 dpf) was chosen because heart electrophysiological maturation and heart rhythm are stabilized from 96 hpf ([Tessadori et al., 2012]). One hundred and twenty hours post fertilization constitutes the latest stage to perform analysis after heart maturation and with conformation to ethical guidelines. Finally, the drug incubation time of 4 h was selected according to a previously established experimental set up ([Cornet et al., 2017]). Twelve embryos (1 embryo/well) were imaged for each compound, and the screening of the whole library was distributed over 15 experimental days. On each experimental day, 8 molecules were imaged: 7 drugs and the negative control 1% DMSO, to allow intraexperimental comparison.
The hardware conforming the screening platform allows zebrafish larvae sampling from multi-well plates to allow their position and automatic orientation in a glass capillary under a microscope to perform high-throughput imaging acquisition. It integrates 2 commercially available systems. First, an integrated VAST system (Union Biometrica) ([Pardo-Martin et al., 2010]), which consists of 2 complementary devices: (1) LP sampler, an automated fluid system capable of aspirating small to medium sized particles from multi-well plates and delivering them intact to the VAST BioImager, and (2) VAST BioImager, an automated fluid system, which positions zebrafish larva in a glass capillary. Once introduced in the glass capillary, the larva is recognized by an integrated imaging system and rotated to the desired angle for external imaging. Second, a Leica DM6B upright widefield microscope with a motorized Z-stage and Leica DFC9000 GTC (4.2 megapixel) CMOS camera particularly suited for high-speed fluorescent imaging applications achieves the fluorescent time-lapse imaging. The 2 systems, VAST and Leica microscope, communicate to coordinate the tasks of sampling, positioning, and imaging. To control the microscope, the LASX software (Leica) was used. To focus fluorescent structures in z-direction, the Autofocus function in LASX was used.

Pluricyte hiPSC-CMs = experiment: hiPSC-CM calcium transient FLIPR assay; conditions: 10 μM; for detection as cardiotoxic in hiPSC-CMs (hiPSC-CM positive): 0.1% DMSO, any feature significant at any time point (5, 30, 90 min); for time point of detection in hiPSC-CMs: T1 5 min, T2 30 min, T3 90 min after compound addition
Protocol: hiPSC-CMs beat spontaneously under culture conditions and the beating pattern can be addressed by Ca^2+ dyes reporting the intracellular Ca^2+ concentration that is then measured by the fluorometric imaging plate reader (FLIPR).
This standard protocol was changed at 2 steps: hiPSC-CMs were not spun after thawing and the final concentration was 15 000 instead of 10 000 cells/well.
Twenty microliters of Ca-6 dye solution was added to each well of the assay plate and the assay plate was incubated for 2 h at 37°C, 5% CO2 in the dark. […] After baseline measurement, compounds were added and the fluorescence signal was measured 5, 30, and 90 min after compound treatment. Fifteen microliters of compound dilution was transferred from a compound source plate (40 μM, 0.4% DMSO) to the assay plate (already containing 25 μl cells and 20 μl Ca-6 dye) using FLIPR. The final compound concentration was 10 μM and 0.1% DMSO. Between each measurement the plate was returned to the same incubator. Five extracted features were quantified: beating frequency/beats per minute (bpm), amplitude (ampl), area under the curve (auc), peak width (pkw), and peak width at 10% amplitude (ppkw) are measures informing about the depolarization and repolarization kinetics. […] Each compound was assessed as triplicate at 3 time points after incubation (T1: 5 min, T2: 30 min, T3: 90 min). A measurement was taken prior to compound addition (baseline, not shown). As there was little variability in the baseline measurement, it was not necessary to normalize against baseline. An average of the data of each feature for each time point was fed into the statistical model to determine significant effects.
The LMMs include random effects accounting for the different sources of variation from the experimental design.

AB wildtype larvae = experiment: Acute Toxicity test for NOEC determination in AB wildtype zebrafish larvae, 3 to 96 hpf; format: in vivo, Danio rerio; conditions: higher concentration than the working concentration
Protocol: Determination of NOEC was achieved through an Acute Toxicity test performed on AB wildtype larvae from 3 to 96 hpf, as previously described ([Cornet et al., 2017]) (see Supplementary Table 1 for NOEC data for each compound). […] Larvae were immersed in E3 with PTU 0.2 mM and Tricaine methanesulfonate (Sigma-Aldrich, No. E10521) at 168 mg/ml working concentration and distributed in 96-well plates in 100 µl per well. Then, 100 µl of compound solution was added at double NOEC concentration to reach the working concentration per compound: NOEC, DMSO 1%, and the final volume of 200 µl per larva per well. Negative control larvae were incubated in 200 µl 1% DMSO. Embryos were allowed to incubate in the compound solution for 4 h before. […] Twelve embryos (1 embryo/well) were imaged for each compound, and the screening of the whole library was distributed over 15 experimental days. On each experimental day, 8 molecules were imaged: 7 drugs and the negative control 1% DMSO, to allow intraexperimental comparison.

hERG = system: hERG; set-up: method as in Guo et al., 2007; Shi et al., 2015; conditions: human patients and rat cardiomyocytes; ref Guo et al., 2007; Shi et al., 2015; cited from earlier work
[2] = 5 dpf larvae, 4 h incubation at NOEC, 1% DMSO, positive if any numerical feature significant or flag incidence above 30%

Structure (SMILES)	market withdrawal due to cardiovascular adverse effects ([1]; humans)	detection as cardiotoxic in hiPSC-CMs (hiPSC-CM positive) (Pluricyte hiPSC-CMs)	detection as cardiotoxic in zebrafish (zebrafish positive) (zebrafish larvae; in vivo)	other results
O=C(CCCN1CC=C(n2c(=O)[nH]c3ccccc32)CC1)c1ccc(F)cc1 [Droperidol]	withdrawn from the market	–	–	–
CC(C)CC(N(C)C)C1(c2ccc(Cl)cc2)CCC1 (stereo not drawn) [Sibutramine]	withdrawn from the market due to cardiotoxicity concerns	TP molecules for both models	–	detection as cardiotoxic in zebrafish (zebrafish positive) (zebrafish larvae; [2]): could detect all; also recorded: TP molecules for both models; cardiovascular clinical adverse effects ([1]; humans): promote cardiovascular clinical adverse effects through both the parent drug and metabolites; time point of detection in hiPSC-CMs (Pluricyte hiPSC-CMs): detected only at T3; also recorded: only detected as cardiotoxic through the late assessment
CS(=O)(=O)c1ccc(C2=C(c3ccccc3)C(=O)OC2)cc1 [Rofecoxib]	withdrawn from the market due to cardiotoxicity concerns	failed to detect; also recorded: did not even detect	–	cardiovascular clinical adverse effects ([1]; humans): heart attack and stroke
Cc1ccc(-c2cc(C(F)(F)F)nn2-c2ccc(S(N)(=O)=O)cc2)cc1 [Celecoxib]	withdrawn from the market due to cardiotoxicity concerns	failed to detect; also recorded: did not even detect	could detect all	–
CCCN1C[C@H](CSC)C[C@@H]2c3cccc4[nH]cc(c34)C[C@H]21 [Pergolide]	withdrawn from the market	failed to detect; also recorded: neither model detected	–	clinical adverse effect leading to withdrawal ([1]; humans, no reference given): valvulopathies
COCCc1ccc(OCC(O)CNC(C)C)cc1 (stereo not drawn) [Metoprolol]	–	–	–	irregular beating of the heart (arrhythmia) (zebrafish larvae; in vivo): arrhythmia
CC(C)NCC(O)c1cc(O)cc(O)c1 (stereo not drawn) [Metaproterenol]	withdrawn from the market due to cardiotoxicity concerns	–	could detect all	–
O=C(O[C@@H]1C[C@@H]2C[C@H]3C[C@H](C1)N2CC3=O)c1c[nH]c2ccccc12 [Dolasetron]	–	failed to detect	could detect all	–
COc1cc(N)c(Cl)cc1C(=O)NC1CCN(CCCOc2ccc(F)cc2)CC1OC (stereo not drawn) [Cisapride]	withdrawn from the market due to cardiotoxicity concerns	–	could detect all	Bigeminy (zebrafish larvae; in vivo): Bigeminy
CN(CCOc1ccc(NS(C)(=O)=O)cc1)CCc1ccc(NS(C)(=O)=O)cc1 [Dofetilide]	withdrawn from the market	–	detection	–
CC(C)COCC(CN(Cc1ccccc1)c1ccccc1)N1CCCC1 (stereo not drawn) [Bepridil]	withdrawn from the market	–	detection	–
CN1CCN(C2=Nc3cc(Cl)ccc3Nc3ccccc32)CC1 [Clozapine]	withdrawn from the market	–	–	–
CCCCCCCN(CC)CCCC(O)c1ccc(NS(C)(=O)=O)cc1 (stereo not drawn) [Ibutilide]	–	–	–	cardiotoxicity in humans ([1]; ref Stambler et al., 1997): can induce or worsen ventricular arrhythmias with fatal consequences
CC(Cc1ccccc1)NCCC(c1ccccc1)c1ccccc1 (stereo not drawn) [Prenylamine]	withdrawn from the market	–	–	developmental defects in the acute toxicity test (AB wildtype larvae): strong developmental defects
CC(C)C[C@H]1C(=O)N2CCC[C@H]2[C@]2(O)O[C@](NC(=O)[C@@H]3C=C4c5cccc6[nH]c(Br)c(c56)C[C@H]4N(C)C3)(C(C)C)C(=O)N12 [Bromocriptine]	withdrawn from the market	–	–	detection in zebrafish due to features other than ventricular BPM (zebrafish larvae; 5 dpf larvae, 4 h incubation at NOEC): detected for effects in features other than BPM; also recorded: enabled the detection; irregular beating of the heart (arrhythmia) (zebrafish larvae; 5 dpf larvae, 4 h incubation at NOEC, representative example): arrhythmia; time point of detection in hiPSC-CMs (Pluricyte hiPSC-CMs): detected only at T3; also recorded: only detected as cardiotoxic through the late assessment
COc1cccc2c1C(=O)c1c(O)c3c(c(O)c1C2=O)C[C@@](O)(C(=O)CO)C[C@@H]3O[C@H]1C[C@H](N)[C@H](O)[C@H](C)O1 [Doxorubicin]	–	–	–	cardiotoxicity in humans ([1]; ref Raj et al., 2014): promotes both acute and chronic cardiotoxicity in humans
CCN[C@@H](C)Cc1cccc(C(F)(F)F)c1 [Dexfenfluramine]	withdrawn from the market due to cardiotoxicity concerns	failed to detect	–	detection as cardiotoxic in zebrafish (zebrafish positive) (zebrafish larvae; [2]): could detect all
CNCC(O)c1ccc(O)c(O)c1 (stereo not drawn) [Racepinephrine]	withdrawn from the market	–	detection	heart rate (ventricular BPM) phenotype (zebrafish larvae; in vivo): tachycardia
CC(C)NCC(O)COc1cccc2ccccc12 (stereo not drawn) [Propranolol]	–	–	–	heart rate (ventricular BPM) phenotype (zebrafish larvae; in vivo): bradycardia
CC(C)(Sc1cc(C(C)(C)C)c(O)c(C(C)(C)C)c1)Sc1cc(C(C)(C)C)c(O)c(C(C)(C)C)c1 [Probucol]	–	failed to detect; also recorded: cannot detect	detection	effect on hERG activity (hERG): interfere with hERG activity; arrhythmic phenotypes in hiPSC-CMs (Pluricyte hiPSC-CMs): does not show arrhythmic phenotypes
COc1ccc(CCN2CCC(Nc3nc4ccccc4n3Cc3ccc(F)cc3)CC2)cc1 [Astemizole]	withdrawn from the market due to cardiotoxicity concerns	TP molecules for both models	–	Bigeminy (zebrafish larvae; in vivo): Bigeminy; cardiovascular clinical adverse effects ([1]; humans): promote cardiovascular clinical adverse effects through both the parent drug and metabolites

— publication PMC6760275, “Comparison of Zebrafish Larvae and hiPSC Cardiomyocytes for Predicting Drug-Induced Cardiotoxicity in Humans” (Toxicological Sciences, 2019)
